Source: US20240374590A1, “COMPOSITIONS AND METHODS FOR TREATING CANCER” (A2A PHARMACEUTICALS, INC., priority 2021, published 2024)

Legend:
[1] = test system: HCT-116 human colon carcinoma cell line; assay: Cell viability assay (SRB) in HCT-116; assay type: cell-based; conditions: 72 hours after treatment, read-out: HCT116 IC50
Method in brief: (§1)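 JIMT-1 (3×10^3 cells/well) and HCT-116 (4×10^3 cells/well) cells were seeded and treated with inhibitors at several concentrations 24 h later. Viability was read by sulforhodamine B staining 72 h after treatment. JIMT-1 was grown in DMEM and HCT-116 in McCoy's 5A, both with FBS.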

RKO xenograft = assay: RKO colon cancer xenograft tumor growth in nude mice; assay type: in vivo, mouse; conditions: female athymic nude mice
Experimental: Six-to-eight-week-old female athymic nude mice were housed with a temperature-controlled and 12-hour light/12-hour dark cycle environment. For in vivo colon cancer tumor growth, 1×10^6 RKO cells were prepared in 100 μL of DMEM and injected into right flank of female nude mice. Mouse weight and tumor volume were measured twice a week. Tumor volumes were calculated as length×width^2×0.5. Once the tumor volume had reached about 100 mm^3, xenografts were randomized into groups (5 mice per group). Animals were treated with vehicle and Compound 129b. The formulation for vehicle and Compound 129b was 50% PEG400 and 20% Cremophor RH40 final (50% of 40% Cremophor) in Acetate buffer, PH=4. The mouse were sacrificed after 4 weeks or if the tumors reached a predefined tumor volume cut-off of 2500 mm^3. […] For instance, at the highest does, a TGI of at least 80% was observed (FIG. 1). PGP-71

[2] = test system: JIMT-1 human breast cancer cell line; assay: Cell viability assay (SRB) in JIMT-1; assay type: cell-based; conditions: 72 hours after treatment, read-out: JIMT1 IC50
Method in brief: as §1

CT-26 xenografts = assay: CT-26 mouse colon xenograft model; assay type: in vivo; conditions: CT-26 xenograft, female Balb/c mice; 15, 25, 50 mpk QD, 5 mpk IV BIW, 5 mpk IP QD
Experimental: Compound 129b was also tested in CT-26 mouse colon xenograft models. For CT-26 xenografts 5×10^5 CT-26 cells in 100 μL was injected in the right flank of six-to-eight-week-old female Balb/c mice. When the tumor volume reached mean of ˜100 mm^3, mice were randomized in a group of 5 and treatment was initiated vehicle, 15 mpk QD, 25 mpk QD, 50 mpk QD, 5 mpk IV BIW, and 5 mpk IP QD of Compound 129b.

IC50 [1]: 0.034 µM
IC50 [2]: 0.003 µM
SMILES: COc1ccc(-c2cc(Nc3ccnc(N4C[C@@H](C)O[C@@H](C)C4)n3)[nH]n2)c(F)c1 [Compound 129b, 2-((2R,6S)-2,6-dimethylmorpholino)-N-(3-(2-fluoro-4-methoxyphenyl)-1H-pyrazol-5-yl)pyrimidin-4-amine]
tumor growth inhibition (in words) (RKO xenograft; 100 mg/kg PO QD/BID/TID): strong tumor growth inhibition
TGI (RKO xenograft; highest dose (100 mg/kg PO TID, 28 days)): at least 80%
tumor growth inhibition or regression (in words) (CT-26 xenografts): Strong and statistically significant tumor growth inhibition or regression
